Measurements: the NIST ThermoML archive (doi:10.1021/acs.jced.8b00610)
Where “and” joins values, the source holds several entries; their conditions need not be identical. Equal entries are not always repeated. ± gives the expanded uncertainty stated by the source.

Conditions: Liquid, Ebulliometric method (Recirculating still)

vapor or sublimation pressure (355.7 K) | vapor or sublimation pressure (373.1 K) | SMILES
101.3 ± 1.4 kPa and 101.32 ± 10 kPa |  | CC(C)O [propan-2-ol]
 | 101.3 ± 1.4 kPa | O [water]
